Laboratory results: US20080313751A1, “Method by Using Human or Mice-Isg12 to Develop and Prepare Drugs and Single Nucleotide Polymorphism in the Isg12 Gene for Diagnostic Use” (priority 2005, published 2008)

Tested on: NR4A1
Assay: Subcellular (cytosol/nucleus) distribution of NR4A1 with overexpressed ISG12
Assay type: cell-based, human
Conditions: EGFP-tagged NR4A1 and myc-tagged ISG12 overexpressed; data not shown
Description: In order to quantify the effect of ISG12 on the cellular localization of NR4A1, the inventors analyzed the distribution of NR4A1 between the cytosol and the nucleus by separating sub-cellular fractions of 293 cells in which EGFP-tagged NR4A1 was overexpressed in the absence or presence of myc-tagged ISG12. In the presence of ISG12 20.8±7.4% (average±SD from 4 experiments; p<0.05) more NR4A1 was found in the cytosol as in the absence of ISG12. […] A representative example is given (n=3).
When the same experiments were performed with an EGFP-tagged NR4A1 construct (AA248-580) that cannot be exported from the nucleus^24 no influence of ISG12 on subcellular distribution of that construct was seen (FIG. 5). Similarly, the effect of ISG12 on full length NR4A1 was impaired in the presence of leptomycin B that inhibits nuclear export (data not shown).
Human embryonic kidney 293 cells were grown in 6-wells to sub-confluence and then transfected with EGFP-NR4A1 and mycISG12 together or separately. Cell fractionation was performed 30 hours after transfection, using MS buffer (210 mM mannitol, 70 mM sucrose, 5 mM Tris-HCl, pH 7.5 and 1 mM EDTA) containing 1% protease inhibitor cocktail. After homogenizing the cells with a 27 gauge needle 10 times, samples were spun at 1300×g for 10 minutes at 4° C. to pellet the nuclei. […]

## CCC(=C/[C@H](C)C/C=C/C(C)=C/[C@@H](C)C(=O)[C@@H](C)[C@H](O)[C@@H](C)C/C(C)=C/C(=O)O)/C=C/[C@@H]1OC(=O)C=C[C@@H]1C [leptomycin B]
  effect of ISG12 on full length NR4A1 (nuclear export / subcellular distribution) in the presence of the substance: impaired
